In patent publication US11834450B2, “Compounds having ((3-nitrophenyl)sulfonyl)acetamide as BCL-2 inhibitors” (Eil Therapeutics, Inc., priority 2021, dated 2023) one finds CC50, EC50 and IC50 data, which are given here for twelve compounds.

Each structure is given as a SMILES string. Some results are limits rather than exact numbers.

Series [1] can be described thus: Cell viability assay HEK293 (CellTiter-Glo). In kind it is cell-based. The conditions noted are these: human, HEK293 cells, read-out: HEK293 (CC50 code). In short, it runs like this:
(§1)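 Cells were seeded at 2000/well (HEK293, in DMEM, pre-incubated a day) or 4000/well (other lines, in RPMI-1640). Serially diluted compound was added and plates incubated 3 days at 37 °C, with viability read by CellTiter-Glo luminescence.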
On the technique in general: In ATP-based viability assays light output follows the ATP content of the culture.

Series [2] has as its system caspase-3 and -7 activities in RS4-11 cells. The experiment in a line: Cas-3/7 activation (Caspase-Glo 3/7) in RS4-11 cells. It is filed as cell-based. Particulars: Homo sapiens, 3.5 h at 37° C. and 30 min at r.t., read-out: Cas-3/7 (EC50 code). In short, it runs like this:
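RS4-11 cells were exposed to graded compound concentrations for 3.5 h at 37° C/5% CO2, then 30 min at room temperature. Caspase-3/7 activity was measured by luminescence after 30 min with a DEVD luminogenic substrate reagent.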

Another series deals with T1, BCL-2 (Homo sapiens, UniProt P10415).
T1 construct: purchased BPS Bioscience #50222
Nature of the series: BCL-2 TR-FRET Assay (primary PPI inhibition). It is filed as binding. The conditions noted are these: 60 min incubation; read-out: BCL2 (IC50 code, BCL-2 TR-FRET). Background: TR-FRET usually uses a lanthanide donor and a delayed reading to cut background.

Another series has as its target T2, BCL-XL (Homo sapiens, UniProt Q07817).
T2 construct: purchased BPS Bioscience #50223
The experiment in a line: BCL-XL TR-FRET Assay (primary PPI inhibition). The conditions noted are these: 60 min incubation; read-out: BCLxL (IC50 code, BCL-XL TR-FRET). It is filed as binding. In short, it runs like this:
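TR-FRET readout (ex 340 nm; em 620/665 nm; 60 μs delay, 500 μs integration) after a 60 min incubation. Mix: compound, 10.5 ng BCL-XL, BCL-XL peptide ligand at 1:80, plus anti-His Tb donor and dye acceptor each at 1:100.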

The subject of another series is MOLT-4 cells. The experiment in a line: Cell viability assay MOLT-4 (CellTiter-Glo). It is filed as cell-based. Particulars: Homo sapiens, 72 h; MOLT-4 cells, 3 days, CellTiter-Glo; read-out: MOLT-4 (CC50 code). In short, it runs like this: as §1
A further series concerns RS4-11 cells. The experiment in a line: Cell viability assay RS4-11 (CellTiter-Glo). Particulars: Homo sapiens, 72 h; RS4-11 cells, 3 days, CellTiter-Glo; read-out: RS4-11 (CC50 code). It is filed as cell-based. In a few lines:
as §1

T1 sequence (P10415 whole entry): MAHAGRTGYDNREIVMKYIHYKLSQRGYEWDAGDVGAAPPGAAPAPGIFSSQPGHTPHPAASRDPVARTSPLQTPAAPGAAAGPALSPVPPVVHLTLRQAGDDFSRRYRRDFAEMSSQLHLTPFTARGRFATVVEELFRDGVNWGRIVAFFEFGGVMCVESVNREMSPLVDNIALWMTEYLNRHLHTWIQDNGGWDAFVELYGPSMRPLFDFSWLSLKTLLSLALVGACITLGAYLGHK
T2 sequence (Q07817 whole entry): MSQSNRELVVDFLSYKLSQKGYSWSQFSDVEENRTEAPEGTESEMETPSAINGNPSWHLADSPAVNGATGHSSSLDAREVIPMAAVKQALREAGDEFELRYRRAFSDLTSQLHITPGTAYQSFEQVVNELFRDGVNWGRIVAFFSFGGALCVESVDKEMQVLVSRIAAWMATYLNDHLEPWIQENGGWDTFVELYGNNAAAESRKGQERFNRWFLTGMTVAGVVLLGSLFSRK

For the compound `CC(C)C(=O)N1Cc2cc(F)ccc2C[C@H]1CN1CCN(c2ccc(C(=O)NS(=O)(=O)c3ccc(NCC4CCOCC4)c([N+](=O)[O-])c3)c(Oc3cnc4[nH]ccc4c3)c2)CC1` [Compound 48, 4-[4-[[(3S)-7-fluoro-2-(2-methylpropanoyl)-3,4-dihydro-1H-isoquinolin-3-yl]methyl]piperazin-1-yl]-N-[3-nitro-4-(tetrahydropyran-4-ylmethylamino)phenyl]sulfonyl-2-(1H-pyrrolo[2,3-b]pyridin-5-yloxy)benzamide], the CC50 (as a rule, the concentration giving 50% cytotoxicity) at 3 days in series [1] was above 25000 nM. In series [2], the EC50 was above 250 nM. The IC50 (as a rule, the point on the concentration scale where inhibition reaches its midpoint) was above 50 nM at BCL-2 and above 4000 nM on BCL-XL. The results for the CC50 with MOLT-4 cells and with RS4-11 cells were above 10000 nM and above 200 nM, respectively.

As to `O=C(NS(=O)(=O)c1ccc(NCC2CCOCC2)c([N+](=O)[O-])c1)c1ccc(N2CCN(C[C@@H]3Cc4cc(F)ccc4CN3C(=O)C3CC3)CC2)cc1Oc1cnc2[nH]ccc2c1` [Compound 49, 4-[4-[[(3S)-2-(cyclopropanecarbonyl)-6-fluoro-3,4-dihydro-1H-isoquinolin-3-yl]methyl]piperazin-1-yl]-N-[3-nitro-4-(tetrahydropyran-4-ylmethylamino)phenyl]sulfonyl-2-(1H-pyrrolo[2,3-b]pyridin-5-yloxy)benzamide], in series [1], the CC50 at 3 days is above 25000 nM. Also, the EC50 in series [2] was above 250 nM. The IC50 on BCL-2 was 10 to 50 nM; on BCL-XL, above 4000 nM. In addition, the CC50 with MOLT-4 cells was 2000 to 10000 nM; with RS4-11 cells, above 200 nM.

Turning to `O=C(NS(=O)(=O)c1ccc(NCC2CCOCC2)c([N+](=O)[O-])c1)c1ccc(N2CCN(C[C@@H]3Cc4ccc(F)cc4CN3C(=O)C3CC3)CC2)cc1Oc1cnc2[nH]ccc2c1` [Compound 50, 4-[4-[[(3S)-2-(cyclopropanecarbonyl)-7-fluoro-3,4-dihydro-1H-isoquinolin-3-yl]methyl]piperazin-1-yl]-N-[3-nitro-4-(tetrahydropyran-4-ylmethylamino)phenyl]sulfonyl-2-(1H-pyrrolo[2,3-b]pyridin-5-yloxy)benzamide], in series [1], the CC50 at 3 days is above 25000 nM. In addition, the EC50 in series [2] is above 250 nM. Moreover, the IC50 is above 50 nM on BCL-2 and above 4000 nM on BCL-XL. The figures for the CC50 with MOLT-4 cells and in the series on RS4-11 cells were above 10000 nM and above 200 nM, respectively.

As for `O=C(NS(=O)(=O)c1ccc(NCC2CCOCC2)c([N+](=O)[O-])c1)c1ccc(N2CCC(Cn3c(-c4ccc(Cl)cc4)nc4cccnc43)CC2)cc1Oc1cnc2[nH]ccc2c1` [Compound 51, 4-[4-[[2-(4-chlorophenyl)imidazo[4,5-b]pyridin-3-yl]methyl]-1-piperidyl]-N-[3-nitro-4-(tetrahydropyran-4-ylmethylamino)phenyl]sulfonyl-2-(1H-pyrrolo[2,3-b]pyridin-5-yloxy)benzamide], the CC50 at 3 days in series [1] was above 25000 nM. In series [2], the EC50 is above 250 nM. The IC50 is 10 to 50 nM on BCL-2 and above 4000 nM at BCL-XL. In addition, the CC50 is 2000 to 10000 nM in the series on MOLT-4 cells and above 200 nM with RS4-11 cells.

In the case of `CC1(O)CC[C@@H](CN2CCN(c3ccc(C(=O)NS(=O)(=O)c4ccc(NCC5CCOCC5)c([N+](=O)[O-])c4)c(Oc4cnc5[nH]ccc5c4)c3)CC2)[C@H](c2ccc(Cl)cc2)C1` (stereo partly drawn) [Compound 52, 4-[4-[[(1R,2R)-2-(4-chlorophenyl)-4-hydroxy-4-methyl-cyclohexyl]methyl]piperazin-1-yl]-N-[3-nitro-4-(tetrahydropyran-4-ylmethylamino)phenyl]sulfonyl-2-(1H-pyrrolo[2,3-b]pyridin-5-yloxy)benzamide], the CC50 at 3 days in series [1] lay within 10000 to 25000 nM. For the same compound, in series [2], the EC50 is at most 100 nM. The IC50 at BCL-2 is 5 to 10 nM; at BCL-XL, at most 2000 nM. The CC50 with MOLT-4 cells is 2000 to 10000 nM; in the series on RS4-11 cells, below 100 nM.

For the compound `CC1=CC[C@@H](CN2CCN(c3ccc(C(=O)NS(=O)(=O)c4ccc(NCC5CCOCC5)c([N+](=O)[O-])c4)c(Oc4cnc5[nH]ccc5c4)c3)CC2)[C@H](c2ccc(Cl)cc2)C1` [Compound 54, 4-[4-[[(1R,6R)-6-(4-chlorophenyl)-4-methyl-cyclohex-3-en-1-yl]methyl]piperazin-1-yl]-N-[3-nitro-4-(tetrahydropyran-4-ylmethylamino)phenyl]sulfonyl-2-(1H-pyrrolo[2,3-b]pyridin-5-yloxy)benzamide], in series [1], the CC50 at 3 days lay in the range of 10000 to 25000 nM. For the same compound, the EC50 in series [2] fell in the range of 100 to 250 nM. For the same compound, the values for the IC50 on BCL-2 and on BCL-XL were 10 to 50 nM and 2000 to 4000 nM, respectively. In addition, the CC50 with MOLT-4 cells lay within 2000 to 10000 nM; with RS4-11 cells, 100 to 200 nM.

With `CC1=CC[C@@H]2C[C@H]1[C@H](c1ccc(Cl)cc1)N(CC1CCN(c3ccc(C(=O)NS(=O)(=O)c4ccc(NCC5CCOCC5)c([N+](=O)[O-])c4)c(Oc4cnc5[nH]ccc5c4)c3)CC1)C2` [Compound 55, 4-[4-[[(1R,4R, 5R)-4-(4-chlorophenyl)-6-methyl-3-azabicyclo[3.3.1]non-6-en-3-yl]methyl]-1-piperidyl]-N-[3-nitro-4-(tetrahydropyran-4-ylmethylamino)phenyl]sulfonyl-2-(1H-pyrrolo[2,3-b]pyridin-5-yloxy)benzamide], the CC50 at 3 days in series [1] is above 25000 nM. Further, in series [2], the EC50 is above 250 nM. Moreover, the IC50 was above 50 nM at BCL-2 and above 4000 nM on BCL-XL. Further, the CC50 with MOLT-4 cells was 2000 to 10000 nM; in the series with RS4-11 cells it was above 200 nM.

`O=C(NS(=O)(=O)c1ccc(NCC2CCOCC2)c([N+](=O)[O-])c1)c1ccc(N2CCC(CN3C(=O)C4(CCNCC4)C3c3ccc(Cl)cc3)CC2)cc1Oc1cnc2[nH]ccc2c1` (stereo not drawn) [Compound 56, 4-[4-[[1-(4-chlorophenyl)-3-oxo-2,7-diazaspiro[3.5]nonan-2-yl]methyl]-1-piperidyl]-N-[3-nitro-4-(tetrahydropyran-4-ylmethylamino)phenyl]sulfonyl-2-(1H-pyrrolo[2,3-b]pyridin-5-yloxy)benzamide]: in series [1], the CC50 at 3 days is above 25000 nM. Further, the EC50 in series [2] is above 250 nM. The IC50 on BCL-2 lay within 10 to 50 nM; on BCL-XL, 2000 to 4000 nM. Moreover, the CC50 with MOLT-4 cells was above 10000 nM; in the series with RS4-11 cells, above 200 nM.

Take `CC(C)C(=O)N1Cc2cc(Cl)ccc2C[C@H]1CN1CCN(c2ccc(C(=O)NS(=O)(=O)c3ccc(NCC4CCOCC4)c([N+](=O)[O-])c3)c(Oc3cnc4[nH]ccc4c3)c2)CC1` [Compound 57, 4-[4-[[(3S)-7-chloro-2-(2-methylpropanoyl)-3,4-dihydro-1H-isoquinolin-3-yl]methyl]piperazin-1-yl]-N-[3-nitro-4-(tetrahydropyran-4-ylmethylamino)phenyl]sulfonyl-2-(1H-pyrrolo[2,3-b]pyridin-5-yloxy)benzamide]: in series [1], the CC50 at 3 days lay in the range of 10000 to 25000 nM. Besides, the EC50 in series [2] is above 250 nM. The IC50 is above 50 nM on BCL-2 and above 4000 nM at BCL-XL. Moreover, the CC50 with MOLT-4 cells was 2000 to 10000 nM; in the series with RS4-11 cells, above 200 nM.

With `CC(C)C(=O)N1C[C@@H](CN2CCN(c3ccc(C(=O)NS(=O)(=O)c4ccc(NCC5CCOCC5)c([N+](=O)[O-])c4)c(Oc4cnc5[nH]ccc5c4)c3)CC2)[C@H](c2ccc(Cl)cc2)C1` [Compound 58, 4-[4-[[(3R,4R)-4-(4-chlorophenyl)-1-(2-methylpropanoyl)pyrrolidin-3-yl]methyl]piperazin-1-yl]-N-[3-nitro-4-(tetrahydropyran-4-ylmethylamino)phenyl]sulfonyl-2-(1H-pyrrolo[2,3-b]pyridin-5-yloxy)benzamide], in series [1], the CC50 at 3 days is above 25000 nM. Also, the EC50 in series [2] was above 250 nM. For the same compound, the IC50 on BCL-2 was 10 to 50 nM; on BCL-XL, above 4000 nM. The CC50 with MOLT-4 cells was 2000 to 10000 nM; in the series on RS4-11 cells it was above 200 nM.

Consider `O=C(NS(=O)(=O)c1ccc(NCC2CCOCC2)c([N+](=O)[O-])c1)c1ccc(N2CCN(C[C@H]3Cc4ccccc4CN3C(=O)c3ccsc3)CC2)cc1Oc1cnc2[nH]ccc2c1` [Compound 59, N-[3-nitro-4-(tetrahydropyran-4-ylmethylamino)phenyl]sulfonyl-2-(1H-pyrrolo[2,3-b]pyridin-5-yloxy)-4-[4-[[(3R)-2-(thiophene-3-carbonyl)-3,4-dihydro-1H-isoquinolin-3-yl]methyl]piperazin-1-yl]benzamide], for which the CC50 at 3 days in series [1] was above 25000 nM. The EC50 in series [2] is above 250 nM. For the same compound, the IC50 at BCL-2 lay in the range of 10 to 50 nM; on BCL-XL it was 2000 to 4000 nM. Also, the CC50 with MOLT-4 cells is 2000 to 10000 nM; in the series with RS4-11 cells, above 200 nM.

`COCCNc1ccc(S(=O)(=O)NC(=O)c2ccc(N3CCC(CN4CCCCC4c4ccc(Cl)cc4)CC3)cc2Oc2cnc3[nH]ccc3c2)cc1[N+](=O)[O-]` (stereo not drawn) [Compound 61, 4-[4-[[2-(4-chlorophenyl)-1-piperidyl]methyl]-1-piperidyl]-N-[4-(2-methoxyethylamino)-3-nitro-phenyl]sulfonyl-2-(1H-pyrrolo[2,3-b]pyridin-5-yloxy)benzamide]: the CC50 at 3 days in series [1] is above 25000 nM. For the same compound, the EC50 in series [2] was above 250 nM. The IC50 is above 50 nM at BCL-2 and at most 2000 nM on BCL-XL. Further, the values for the CC50 in the series with MOLT-4 cells and with RS4-11 cells were 2000 to 10000 nM and 100 to 200 nM, respectively.
